Data from patent US9029405B2, “5-(biphenyl-4-yl)-3-phenyl-1,2,4-oxadiazolyl derivatives as ligands on the sphingosine 1-phosphate(SIP)receptors” (Merck Serono S.A., priority 2010, dated 2015).
Structures can show the parent of a compound that is named as a salt. Where two headings read alike, the source gives them in different places.

Assays:
S1P1 [1] = biological target: T1, S1P1 (Homo sapiens, UniProt P21453); test: Receptor binding assay, [33P]sphingosine 1-phosphate competition, membranes of CHO cells expressing S1P1
Protocol: (§1) Membranes were prepared from CHO cells expressing S1P1 or S1P3 for use in ligand binding studies. Cells were suspended in 50 mM TRIS, pH 7.4, 2 mM EDTA, 250 mM Sucrose (buffer A) and 1× Complete protease inhibitor cocktail (Roche), and disrupted at 4° C. by N2 decompression using a cell disruption bomb (Parr Instrument). Following centrifugation at 1000 RPM for 10 min at 4° C., the supernatant was diluted (2×) in buffer A and centrifuged again at 19000 RPM for 75 min at 4° C. The pellet was then suspended in 10 mM HEPES, pH 7.4, 1 mM EDTA, 250 mM Sucrose (Buffer B), and 1× Complete EDTA-free protease inhibitor cocktail and homogenized using a potter. Membranes were flash frozen in liquid N2 and stored at −80° C.
(§2) [33P]sphingosine 1-phosphate (3000 Ci/mmol; American Radiolabeled Chemicals, Inc.) was added to test compounds in 20% DMSO by competition. Membranes and WGA SPA beads (GE Healthcare) were added to give a final volume of 100 μl in 96-well plates or 50 μl in 384-well plates with assay concentrations of 30 pM or 15 pM [33P]sphingosine 1-phosphate (respectively for S1P1 or S1P3), 50 mM HEPES, pH 7.5, 5 mM MgCl2, 100 mM NaCl, 0.4% fatty acid-free BSA, 1-5 μg/well of proteins in 96-well plates vs 0.6-1 μg/well of proteins in 384-well plates and 100 μg/well of WGA SPA beads in 96-well plates vs 75 μg/well of WGA SPA beads in 384-well plates. Binding was performed for 60 min at RT on a shaker and bound radioactivity was measured on a PerkinElmer 1450 MicroBeta counter. Triplicate samples were averaged and normalized as percentage of inhibition relative to total binding (only DMSO in well) and non specific binding (1000-fold excess of unlabeled S1P). Binding data were analyzed using the GraphPad Prism program or Genedata software.
(§3) The “potency” or the “activity” of the compounds is determined by the Ki values as evaluated in one of the above described binding assay, 96 or 384 well plates.
Target sequence in this assay (P21453 whole entry, species assumed): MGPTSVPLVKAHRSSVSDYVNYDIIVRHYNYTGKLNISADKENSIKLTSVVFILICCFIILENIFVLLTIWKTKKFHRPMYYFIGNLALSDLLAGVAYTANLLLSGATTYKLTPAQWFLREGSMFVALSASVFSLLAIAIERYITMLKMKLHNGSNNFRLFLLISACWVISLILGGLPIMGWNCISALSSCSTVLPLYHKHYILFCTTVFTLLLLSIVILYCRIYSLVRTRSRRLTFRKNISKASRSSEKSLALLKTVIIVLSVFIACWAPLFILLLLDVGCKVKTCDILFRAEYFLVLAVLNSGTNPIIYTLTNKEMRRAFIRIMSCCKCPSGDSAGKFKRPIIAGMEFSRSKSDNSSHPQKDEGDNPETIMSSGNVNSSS

S1P3 = S1P3 (Homo sapiens, UniProt Q99500); test: Receptor binding assay, [33P]sphingosine 1-phosphate competition, membranes of CHO cells expressing S1P3
Chain of S1P3 (Q99500 whole entry, species assumed): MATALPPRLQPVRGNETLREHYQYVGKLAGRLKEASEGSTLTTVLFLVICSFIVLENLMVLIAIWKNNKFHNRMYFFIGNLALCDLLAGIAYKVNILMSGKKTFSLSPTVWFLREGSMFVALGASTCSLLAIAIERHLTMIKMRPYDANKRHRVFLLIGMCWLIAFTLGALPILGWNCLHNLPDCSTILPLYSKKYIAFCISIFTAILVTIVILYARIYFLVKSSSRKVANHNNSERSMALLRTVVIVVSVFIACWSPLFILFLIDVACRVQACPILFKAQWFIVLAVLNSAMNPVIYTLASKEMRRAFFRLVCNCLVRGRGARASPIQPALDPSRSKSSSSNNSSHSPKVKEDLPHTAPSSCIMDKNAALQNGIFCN
Protocol: as §1, §2, §3

S1P1 [2] = biological target: T1, S1P1; test: S1P1 internalization assay in S1P1-U2OS cells (cell imaging); assay type: cell-based; set-up: host or cells: U2OS (human bone osteosarcoma epithelial cells); details: U2OS cells expressing S1P1-EGFP, 384-well format
Protocol: Cellular Functional Assays: Internalization of Sphinqosine-1-phosphate Receptor 1 (S1P1) in a Human Cell Line (U2OS) in a 384-Well Format Using a Cell Imaging Analysis.
The S1P1 internalization assay was performed in 384 well plates (Corning 384 black with clear bottom 3712) using S1P1-U2OS cells from BioImage (C039A), a human epithelial cell line (Human Bone Osteosarcoma Epithelial Cells). These cells expressed the human S1P1 Receptor fused to the green fluorescent protein (EGFP). A standard CMV promoter (cytomegalovirus promoter) controls the expression of S1P1-EGFP and continuous expression was maintained by addition of geneticin to the culture medium.
S1P1 Receptor desensitization induced the internalization of the membrane-localized S1P-EGFP fusion protein to endosomes, which can be monitored by cell imaging analysis.
The cells are plated in low serum medium (Dulbecco's Modified Eagle Medium (DMEM) with Glutamax-1 and high glucose, 1% Penicillin/Streptomycin, 1% Fetal Calf Serum (FCS), 0.5 mg/ml Geneticin) overnight.
The next day, S1P1-U2OS cells are incubated in 20 μl serum free medium (DMEM with Glutamax-1 and high glucose, 0.1% of fatty-acid free Bovin Serum Albumin (BSA), 10 mM, N′-2-Hydroxyethylpiperazine-N′-2 ethanesulphonic acid (HEPES) 1M) for 2 hours at 37° C./5% CO2. The cells are then treated with 4 μl compounds/agonists (6×/3% DMSO) for a total volume of 24 μl, and plates are incubated for 1 hour at 37° C./5% CO2.
S1P1-U2OS cells are fixed with 25 μl Paraformaldehyde 8% and stained with Hoechst 33345 dye (1:1000) for 20 minutes.
They were then washed 3 times with Phosphate Buffered Saline (PBS) and plates are sealed. The internalization of the receptor S1P1-EGFP is measured on Cellomics by calculating the “spot count per object” (“object” corresponds to nuclear and “spot” corresponds to S1P1-EGFP receptor). Internalization data were observed thanks to vHCS View and analyzed using Genedata® software.
Target sequence in this assay (P21453 whole entry): as the sequence (P21453 whole entry, species assumed) above

[3] = 96 well plate, read-out: S1P1 Binding Ki [M] (96 well plate)
[4] = 384 well plate, read-out: S1P1 Binding Ki [M] (384 well plate)
[5] = 96 well plate, read-out: S1P3 Binding Ki [M] (96 well plate)
[6] = 384 well plate, read-out: S1P3 Binding Ki [M] (384 well plate)

In the case of COCc1cc(-c2nc(-c3ccc([C@@H](C)NCC(=O)O)cc3)no2)ccc1-c1ccccc1C [Example 9, N-[(1R)-1-(4-{5-[2-(methoxymethyl)-2′-methylbiphenyl-4-yl]-1,2,4-oxadiazol-3-yl}phenyl)ethyl]glycine, hydrochloride salt], the Ki (S1P1 [1]; [3]) is reported as 1.75e-10 M, the Ki (S1P1 [1]; [4]) is reported as 1.11e-09 M and the Ki (S1P3; [5]) is reported as 7.7e-07 M. The Ki (S1P3; [6]) was 4.94e-07 M and the EC50 (S1P1 [2]) was 4.34 nM.
Work on COCc1cc(-c2nc(-c3ccc(CN(C)[C@@H](C)C(=O)O)c(F)c3)no2)ccc1-c1ccccc1C [Example 44, N-(2-fluoro-4-{5-[2-(methoxymethyl)-2′-methylbiphenyl-4-yl]-1,2,4-oxadiazol-3-yl}benzyl)-N-methylalanine, hydrochloride salt] yielded a Ki (S1P1 [1]; [4]) of 1.58e-09 M, a Ki (S1P3; [6]) of 8.69e-07 M and an EC50 (S1P1 [2]) of 6.29 nM.
For Cc1ccccc1-c1ccc(-c2nc(-c3ccc(CNC(C)(C)C(=O)O)c(F)c3)no2)cc1C(F)(F)F [Example 49, N-(2-fluoro-4-{5-[2′-methyl-2-(trifluoromethyl)biphenyl-4-yl]-1,2,4-oxadiazol-3-yl}benzyl)-2-methylalanine, hydrochloride salt], the Ki (S1P1 [1]; [4]) was 1.06e-09 M, the Ki (S1P3; [6]) was 9.71e-07 M and the EC50 (S1P1 [2]) was 13.8 nM.
For Cc1ccccc1-c1ccc(-c2nc(-c3ccc([C@H](C)N(C)CC(=O)O)cc3)no2)cc1C(F)(F)F [Example 34, N-methyl-N-[(1S)-1-(4-{5-[2′-methyl-2-(trifluoromethyl)biphenyl-4-yl]-1,2,4-oxadiazol-3-yl}phenyl)ethyl]glycine, hydrochloride salt], the Ki (S1P1 [1]; [4]) was 4.47e-09 M, the Ki (S1P3; [6]) was 6e-06 M and the EC50 (S1P1 [2]) was 26.3 nM.
Cc1ccccc1-c1ccc(-c2nc(-c3cccc(CNC4(C(=O)O)CCC4)c3)no2)cc1C(F)(F)F [Example 80] showed a Ki (S1P1 [1]; [4]) of 3.18e-10 M, a Ki (S1P3; [6]) of 3.51e-08 M and an EC50 (S1P1 [2]) of 1.22 nM.
Cc1cc(-c2nc(-c3ccc([C@@H](C)NCC(=O)O)cc3)no2)ccc1-c1ccccc1C(F)F [Example 7, N-[(1R)-1-(4-{5-[2′-(difluoromethyl)-2-methylbiphenyl-4-yl]-1,2,4-oxadiazol-3-yl}phenyl)ethyl]glycine, hydrochloride salt] was tested, and the Ki (S1P1 [1]; [3]) was 3.7e-10 M, the Ki (S1P1 [1]; [4]) was 1.64e-09 M and the Ki (S1P3; [5]) was > 2e-05 M. For the same molecule, the Ki (S1P3; [6]) was 5.24e-06 M and the EC50 (S1P1 [2]) was 17.9 nM.
In the case of Cc1ccccc1-c1ccc(-c2nc(-c3cccc(CN[C@H](C)C(=O)O)c3)no2)cc1C(F)(F)F [Example 82], the Ki (S1P1 [1]; [4]) is reported as 1.01e-09 M, the Ki (S1P3; [6]) is reported as 1.17e-07 M and the EC50 (S1P1 [2]) is reported as 25.1 nM.
Cc1ccccc1-c1ccc(-c2nc(-c3cccc(CCN[C@H](C)C(=O)O)c3)no2)cc1C(F)(F)F [Example 95] showed a Ki (S1P1 [1]; [3]) of 2.15e-10 M, a Ki (S1P1 [1]; [4]) of 8.46e-10 M and a Ki (S1P3; [6]) of 1.12e-07 M. The EC50 (S1P1 [2]) was 4.25 nM.
COCc1cc(-c2nc(-c3ccc(CN(C)C4(C(=O)O)CCCC4)cc3)no2)ccc1-c1ccccc1C [Example 53, 1-((4-(5-(2-(methoxymethyl)-2′-methylbiphenyl-4-yl)-1,2,4-oxadiazol-3-yl)benzyl)(methyl)amino)cyclopentanecarboxylic acid] was tested, and the Ki (S1P1 [1]; [4]) was 3.97e-09 M, the Ki (S1P3; [6]) was 3.64e-06 M and the EC50 (S1P1 [2]) was 42.2 nM.
With Cc1ccccc1-c1ccc(-c2nc(-c3ccc(CNCC(C)C(=O)O)cc3)no2)cc1C(F)(F)F (centres unmarked) [Example 63] the Ki (S1P1 [1]; [4]) was 1.15e-09 M, the Ki (S1P3; [6]) was 2.02e-07 M and the EC50 (S1P1 [2]) was 3.47 nM.
Cc1ccccc1-c1ccc(-c2nc(-c3cccc(C(C)N(C)[C@@H](C)C(=O)O)c3)no2)cc1C(F)(F)F (some centres unmarked) [Example 29, N-methyl-N-[1-(3-{5-[2′-methyl-2-(trifluoromethyl)biphenyl-4-yl]-1,2,4-oxadiazol-3-yl}phenyl)ethyl]alanine, hydrochloride salt] showed a Ki (S1P1 [1]; [4]) of 5.95e-10 M, a Ki (S1P3; [6]) of 5.84e-08 M and an EC50 (S1P1 [2]) of 46 nM.
Work on CCN(Cc1ccc(-c2noc(-c3ccc(-c4ccccc4C)c(C(F)(F)F)c3)n2)cc1)[C@@H](C)C(=O)O [Example 89, (2S)-2-(ethyl(4-(5-(2′-methyl-2-(trifluoromethyl)biphenyl-4-yl)-1,2,4-oxadiazol-3-yl)benzyl)amino)propanoic acid] yielded a Ki (S1P1 [1]; [4]) of 2.56e-09 M, a Ki (S1P3; [6]) of 2.03e-06 M and an EC50 (S1P1 [2]) of 32.2 nM.
For Cc1ccccc1-c1ccc(-c2nc(-c3ccc([C@@H](C)NCC(=O)O)cc3)no2)cc1C(F)(F)F [Example 22, N-[(1R)-1-(4-{5-[2′-methyl-2-(trifluoromethyl)biphenyl-4-yl]-1,2,4-oxadiazol-3-yl}phenyl)ethyl]glycine, hydrochloride salt], the Ki (S1P1 [1]; [3]) was 4.14e-10 M, the Ki (S1P1 [1]; [4]) was 1.72e-09 M and the Ki (S1P3; [5]) was 5.98e-07 M. It also gave a Ki (S1P3; [6]) of 4.7e-07 M and an EC50 (S1P1 [2]) of 6.51 nM.
Work on Cc1ccccc1-c1ccc(-c2nc(-c3cccc(CN(C)[C@@H](C)C(=O)O)c3)no2)cc1C(F)(F)F [Example 81] yielded a Ki (S1P1 [1]; [4]) of 1.72e-09 M, a Ki (S1P3; [6]) of 1.72e-07 M and an EC50 (S1P1 [2]) of 49.5 nM.
With Cc1cc(-c2nc(-c3cccc(C(C)NCC(=O)O)c3)no2)ccc1-c1ccccc1C(F)(F)F (centres unmarked) [Example 38, N-[1-(3-{5-[2-methyl-2′-(trifluoromethyl)biphenyl-4-yl]-1,2,4-oxadiazol-3-yl}phenyl)ethyl]glycine, hydrochloride salt] the Ki (S1P1 [1]; [4]) was 2.84e-09 M, the Ki (S1P3; [6]) was 1.43e-06 M and the EC50 (S1P1 [2]) was 77.9 nM.
Cc1ccccc1-c1ccc(-c2nc(-c3ccc(C(C)NCC(=O)O)cc3)no2)cc1C(F)(F)F (centres unmarked) [Example 32, N-[1-(4-{5-[2′-methyl-2-(trifluoromethyl)biphenyl-4-yl]-1,2,4-oxadiazol-3-yl}phenyl)ethyl]glycine, hydrochloride salt] gave a Ki (S1P1 [1]; [4]) of 1.69e-09 M, a Ki (S1P3; [6]) of 4.33e-07 M and an EC50 (S1P1 [2]) of 7.58 nM.
Molecule Cc1ccccc1-c1ccc(-c2nc(-c3ccc([C@H](C)N[C@@H](C)C(=O)O)cc3)no2)cc1C(F)(F)F (racemic) [Example 26, N-[(1S)-1-(4-{5-[2′-methyl-2-(trifluoromethyl)biphenyl-4-yl]-1,2,4-oxadiazol-3-yl}phenyl)ethyl]-L-alanine, hydrochloride salt and N-[(1R)-1-(4-{5-[2′-methyl-2-(trifluoromethyl)biphenyl-4-yl]-1,2,4-oxadiazol-3-yl}phenyl)ethyl]-D-alanine, hydrochloride salt] has a Ki (S1P1 [1]; [4]) of 2.24e-09 M, a Ki (S1P3; [6]) of 1.65e-06 M and an EC50 (S1P1 [2]) of 21.6 nM.
CC[C@H](NCc1ccc(-c2noc(-c3ccc(-c4ccccc4C)c(C(F)(F)F)c3)n2)cc1)C(=O)O [Example 54, (2S)-2-(4-(5-(2′-methyl-2-(trifluoromethyl)biphenyl-4-yl)-1,2,4-oxadiazol-3-yl)benzylamino)butanoic acid] showed a Ki (S1P1 [1]; [4]) of 7.95e-09 M, a Ki (S1P3; [6]) of 6.69e-06 M and an EC50 (S1P1 [2]) of 39.7 nM.
With Cc1ccccc1-c1ccc(-c2nc(-c3ccc(CNC4(C(=O)O)CCCC4)cc3)no2)cc1C(F)(F)F [Example 59] the Ki (S1P1 [1]; [4]) was 6.83e-09 M, the Ki (S1P3; [6]) was > 2e-05 M and the EC50 (S1P1 [2]) was 44.4 nM.
For COCc1cc(-c2nc(-c3ccc([C@H](C)N[C@H](C)C(=O)O)cc3)no2)ccc1-c1ccccc1C [Example 3, N-[(1S)-1-(4-{5-[2-(methoxymethyl)-2′-methylbiphenyl-4-yl]-1,2,4-oxadiazol-3-yl}phenyl)ethyl]-D-alanine, hydrochloride salt], the Ki (S1P1 [1]; [3]) was 3.4e-10 M, the Ki (S1P1 [1]; [4]) was 2e-09 M and the Ki (S1P3; [6]) was 2.59e-06 M. For the same molecule, the EC50 (S1P1 [2]) was 8.19 nM.
Cc1ccccc1-c1ccc(-c2nc(-c3cccc(CNC(C)(CO)C(=O)O)c3)no2)cc1C(F)(F)F (centres unmarked) [Example 78] showed a Ki (S1P1 [1]; [4]) of 2.16e-09 M, a Ki (S1P3; [6]) of 2.78e-07 M and an EC50 (S1P1 [2]) of 22.3 nM.
